Data published in patent US9029399B2, “17α-hydroxylase/C17,20-lyase inhibitors” (Novartis AG, priority 2011, dated 2015).

target: Human CYP17 enzyme (Cytochrome P450, 17-20 lyase) (Homo sapiens (Human), UniProt P05093); assay: CYP17 lyase assay, recombinant human CYP17 enzyme, 17-α-hydroxy pregnenolone [21-3H] substrate; type: biochemical; details: not given
Description: 1) Cvtochrome P450, 17-20 Lyase (CYP17-Lyase) Assay Development Using Recombinant Human CYP17 Enzyme and 17-α-Hydroxy Pregnenolone [21-3H] as the Substrate
Cytochrome P450, 17-α-Hydroxylase, 17-20 lyase (CYP17) is a multi functional enzyme that plays a key role in the biosynthesis of steroid hormones. […] In the hydroxylation reaction, it converts progesterone and pregnenolone to the corresponding hydroxylated products 17-α-hydroxy progesterone and 17-α-hydroxy pregnenolone. In the lyase reaction, it catalyzes the conversion of these hydroxylated substrates to Androstenedione and Dehydroepiandrosterone (DHEA) respectively. In the Cyp17 lyase assay described here, the conversion of 17-α-hydroxy pregnenolone to Dehydroepiandrosterone and acetic acid is being monitored.
The conversion of 17-α-hydroxy pregnenolone to Dehydroepiandrosterone is accompanied by the release of acetic acid. In the Cyp17 lyase assay, 17-α-hydroxy pregnenolone labeled with tritium (3H) at position 21 is used as the substrate. Chloroform extraction removes the radioactive steroids and acetic acid is taken into aqueous layer. The tritiated acetic acid released in the assay thus extracted is quantified to determine the enzyme activity.
Human Cyp 17 gene was cloned and expressed in Adenoviral expression system in A549 cell lines. The purified cell membrane preparations were used as the source for Human CYP17 enzyme. Total protein concentration: 8 mg/mL.
For routine screening, the assay was set up with 16 μg of enzyme in 50 μL reaction volume. 17α-hydroxy pregnenolone [21-3H] was added to a final concentration of […] NADPH is used at a final concentration of 4.2 mM. Total reaction volume was made up to 50 μL with 50 mM Phosphate buffer pH 7.5. The reaction mixture was incubated at room temperature for 90 minutes with gentle shaking. The reaction was stopped by the addition of 100 μl, of buffer. 500 μl, of 5% freshly prepared activated charcoal was added to the solution and mixed well by vortexing. The samples were centrifuged at 17568×g for 5 minutes. (14000 rpm). The supernatant was carefully transferred to fresh tube and 1.3 mL of scintillation fluid was added, mixed by vortexing.
The measurements were carried out in 2.0 mL Eppendorf™ tubes. Each tube was counted for 1 minute. The amount of tritiated acetic acid released is proportional to the lyase activity. Percent lyase activity in presence of inhibitor was calculated using the formula given below.
[formula] Sample: Enzyme reaction in presence of inhibitor. Positive control: Enzyme reaction without inhibitor but containing DMSO at 1% final concentration. Blank—Contains all reagents except enzyme. % Inhibition=100%−% Lyase activity
For IC50 determination, the % inhibition was plotted as a function of inhibitor concentration. The data was fitted to sigmoidal equation using Graphpad Prism® software IV to generate IC50 values.

Chain of Human CYP17 enzyme (Cytochrome P450, 17-20 lyase) (P05093 whole entry): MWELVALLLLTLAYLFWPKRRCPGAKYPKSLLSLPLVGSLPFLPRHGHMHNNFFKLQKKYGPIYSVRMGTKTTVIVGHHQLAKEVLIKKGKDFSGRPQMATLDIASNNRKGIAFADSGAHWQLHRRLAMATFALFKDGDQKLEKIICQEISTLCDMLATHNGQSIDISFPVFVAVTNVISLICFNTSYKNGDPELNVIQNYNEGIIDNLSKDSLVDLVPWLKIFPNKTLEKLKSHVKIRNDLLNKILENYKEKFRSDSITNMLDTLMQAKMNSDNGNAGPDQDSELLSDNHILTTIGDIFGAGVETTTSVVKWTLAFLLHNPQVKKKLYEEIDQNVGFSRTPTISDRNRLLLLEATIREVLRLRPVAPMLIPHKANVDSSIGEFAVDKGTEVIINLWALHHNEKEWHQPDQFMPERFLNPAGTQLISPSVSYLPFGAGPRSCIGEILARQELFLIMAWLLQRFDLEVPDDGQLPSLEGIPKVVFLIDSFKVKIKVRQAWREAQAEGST

inhibition at 10 µM | SMILES
51% | O=C1N(c2ccnc(C(F)(F)F)c2)CCN1c1c(C2CC2)ccnc1O [Example 50A, 1-(4-cyclopropyl-2-hydroxypyridin-3-yl)-3-(2-(trifluoromethyl)pyridin-4-yl)imidazolidin-2-one]

same assay, conditions: recombinant human CYP17, first value of Human/Rat cell; read-out: Lyase IC 50 Human

SMILES | IC50
O=C1N(c2ccc3sc(Cl)cc3c2)CCN1c1cnccc1C1CC1 [Example 20A, 1-(2-chlorobenzo[b]thiophen-5-yl)-3-(4-cyclopropylpyridin-3-yl)imidazolidin-2-one] | 106 nM
O=C1N(c2ccc3c(C(F)(F)F)csc3c2)CCN1c1cnccc1C1CC1 [Example 23A, 1-(4-cyclopropylpyridin-3-yl)-3-(3-(trifluoromethyl)benzo[b]thiophen-6-yl)imidazolidin-2-one] | 1210 nM
O=C1N(c2ccnc(C3CC3)n2)CCN1c1cnccc1C1CC1 [Example 43A, 1-(4-cyclopropylpyridin-3-yl)-3-(2-cyclopropylpyrimidin-4-yl)imidazolidin-2-one] | 36 nM
O=C1N(c2ccnc(C(F)(F)F)n2)CCN1c1cnccc1C1CC1 [Example 12A, 1-(4-cyclopropylpyridin-3-yl)-3-(2-(trifluoromethyl)pyrimidin-4-yl)imidazolidin-2-one] | 99 nM
O=C1N(c2ccnc(Cl)c2)CCN1c1cnccc1C1(O)CCC1 [Example 33A, 1-(2-chloro-pyridin-4-yl)-3-[4-(1-hydroxy-cyclobutyl)-pyridin-3-yl]imidazolidin-2-one] | 45 nM
O=C1N(c2ccc3sc(F)cc3c2)CCN1c1cnccc1C1CC1 [Example 14A, 1-(4-cyclopropylpyridin-3-yl)-3-(2-fluorobenzo[b]thiophen-5-yl)imidazolidin-2-one] | 26 nM
Cc1nc(Cl)cc(N2CCN(c3cnccc3C3CC3)C2=O)n1 [Example 7A, 1-(6-chloro-2-methylpyrimidin-4-yl)-3-(4-cyclopropylpyridin-3-yl)imidazolidin-2-one] | 41 nM
O=C1N(c2cc(C(F)(F)F)nc(C(F)(F)F)c2)CCN1c1cnccc1C1CC1 [Example 49A, 1-(2,6-bis(trifluoromethyl)pyridin-4-yl)-3-(4-cyclopropylpyridin-3-yl)imidazolidin-2-one] | 6 nM
O=C1N(c2ccc3cc(F)sc3c2)CCN1c1cnccc1C1CC1 [Example 25A, 1-(4-cyclopropyl-pyridin-3-yl)-3-(2-fluoro-benzo(b)thiophene-6-yl)imidazolidin-2-one] | 30 nM
Cc1cc(N2CCN(c3cnccc3C3CC3)C2=O)ncn1 [Example 41A, 1-(4-cyclopropylpyridin-3-yl)-3-(6-methylpyrimidin-4-yl)imidazolidin-2-one] | 70 nM
O=C1N(c2cc(Cl)nc(C3CC3)c2)CCN1c1cnccc1C1CC1 [Example 47A, 1-(2-chloro-6-cyclopropylpyridin-4-yl)-3-(4-cyclopropylpyridin-3-yl)imidazolidin-2-one] | 5.2 nM
O=C1N(c2ccnc(C3CC3)c2)CCN1c1cnccc1C1CC1 [Example 39A, 1-(4-cyclopropylpyridin-3-yl)-3-(2-cyclopropylpyridin-4-yl)imidazolidin-2-one] | 12 nM
Cc1cc(N2CCN(c3cnccc3C3CC3)C2=O)ncc1F [Example 42A, 1-(4-cyclopropylpyridin-3-yl)-3-(5-fluoro-4-methylpyridin-2-yl)imidazolidin-2-one] | 22 nM
O=C1N(c2cc(C(F)(F)F)ccn2)CCN1c1cnccc1C1CC1 [Example 8A, 1-(4-cyclopropylpyridin-3-yl)-3-(4-(trifluoromethyl)pyridin-2-yl)imidazolidin-2-one] | 22 nM
COc1cc(N2C(=O)N(c3cnccc3C3CC3)[C@@H]3C[C@@H]32)ccn1 [Example 31A-II, (1R,5S)-2-(4-cyclopropylpyridin-3-yl)-4-(2-methoxypyridin-4-yl)-2,4-diazabicyclo[3.1.0]hexan-3-one] | 12 nM
O=C1N(c2ccc3ccccc3c2)CCN1c1cnccc1C1CC1 [Example 3A, 1-(4-cyclopropylpyridin-3-yl)-3-(naphthalen-2-yl)imidazolidin-2-one] | 26 nM
O=C1N(c2cc3sccc3cc2F)CCN1c1cnccc1C1CC1 [Example 27A, 1-(4-cyclopropyl-pyridin-3-yl)-3-(5-fluoro-benzo[b]thiophen-6-yl)imidazolidin-2-one] | 461 nM
O=C1N(c2cc(Cl)nc(Cl)c2)CCN1c1cnccc1C1CC1 [Example 46A, 1-(4-cyclopropylpyridin-3-yl)-3-(2,6-dichloropyridin-4-yl)imidazolidin-2-one] | 1.9 nM
O=C1N(c2ccnc(Cl)c2)[C@@H]2C[C@@H]2N1c1cnccc1C1CC1 [Example 30A-I, (1R,5S)-2-(2-chloropyridin-4-yl)-4-(4-cyclopropylpyridin-3-yl)-2,4-diazabicyclo[3.1.0]hexan-3-one] | 161 nM
Cc1csc2cc(N3CCN(c4cnccc4C4CC4)C3=O)ccc12 [Example 18A, 1-(4-cyclopropylpyridin-3-yl)-3-(3-methylbenzo[b]thiophen-6-yl)imidazolidin-2-one] | 76 nM
O=C1N(c2ccnc(Cl)c2)CCN1c1cnccc1C1CCCC1 [Example 34A, 1-(2-chloropyridin-4-yl)-3-(4-cyclopentyl-pyridin-3-yl)-imidazolidin-2-one] | 13 nM
O=C1N(c2cccc(C(F)(F)F)c2)CCN1c1cnccc1C1(O)CC1 [Example 36A, 1-[4-(1-hydroxy-cyclopropyl)-pyridin-3-yl]-3-(3-trifluoromethyl-phenyl)-imidazolidin-2-one] | 27 nM
O=C1N(c2ccc3c(c2)OC(F)(F)O3)CCN1c1cnccc1C1CC1 [Example 17A, 1-(4-cyclopropylpyridin-3-yl)-3-(2,2-difluorobenzo[d][1,3]dioxol-5-yl)imidazolidin-2-one] | 58 nM
O=C1N(c2cc(F)c3ccsc3c2)CCN1c1cnccc1C1CC1 [Example 26A, 1-(4-cyclopropyl-pyridin-3-yl)-3-(4-fluoro-benzo[b]thiophen-6-yl)imidazolidin-2-one] | 6 nM
O=C1N(c2cc(Cl)nc(C(F)(F)F)n2)CCN1c1cnccc1C1CC1 [Example 45A, 1-(6-chloro-2-(trifluoromethyl)pyrimidin-4-yl)-3-(4-cyclopropylpyridin-3-yl) imidazolidin-2-one] | 10 nM
Cc1c(F)sc2ccc(N3CCN(c4cnccc4C4CC4)C3=O)cc12 [Example 24A, 1-(4-Cyclopropyl-pyridin-3-yl)-3-(2-fluoro-3-methylbenzo[b]thiophen-5-yl)-imidazolidin-2-one] | 19 nM
O=C1N(c2cnccc2C2CC2)[C@@H]2C[C@@H]2N1c1ccnc(Cl)c1 [Example 30A-II, (1S,5R)-2-(2-chloropyridin-4-yl)-4-(4-cyclopropylpyridin-3-yl)-2,4-diazabicyclo[3.1.0]hexan-3-one] | 6 nM
O=C1N(c2ccc3c(c2)CCC3)CCN1c1cnccc1C1CC1 [Example 21A, 1-(4-cyclopropylpyridin-3-yl)-3-(2,3-dihydro-1H-inden-5-yl)imidazolidin-2-one] | 17 nM
O=C1N(c2cc(Cl)ncn2)CCN1c1cnccc1C1CC1 [Example 10A, 1-(6-chloropyrimidin-4-yl)-3-(4-cyclopropylpyridin-3-yl)imidazolidin-2-one] | 121 nM
O=C1N(c2ccc3ccsc3c2)CCN1c1cnccc1C1CC1 [Example 16A, 1-(benzo[b]thiophen-6-yl)-3-(4-cyclopropylpyridin-3-yl)imidazolidin-2-one] | 7 nM
